Patent publication US20200187502A1, “MICROBIOCIDAL OXADIAZOLE DERIVATIVES” (SYNGENTA PARTICIPATIONS AG, priority 2017, published 2020)

Columns and labels:
[1] = test system: Puccinia recondita f. Sp. Tritici; test: Fungicidal activity, wheat leaf disc preventative (brown rust); type: in vivo; details: foliar, 200 ppm in the applied formulation, wheat leaf segments cv. Kanzler, compared to untreated control, 7 to 9 days after application, read-out: disease control
Procedure, shortened: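 Preventative leaf-segment test: spray application of diluted formulated compound on wheat cv. Kanzler, spore inoculation after 1 day. Percent control relative to untreated segments rated 7 to 9 days post-application, with incubation at 19° C, 75% relative humidity, 12 h photoperiod.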

[2] = test system: Puccinia recondita f. Sp. Tritici; test: Fungicidal activity, wheat leaf disc curative (brown rust); type: in vivo; details: foliar, 200 ppm in the applied formulation, wheat leaf segments cv. Kanzler, curative (applied 1 day after inoculation), compared to untreated control, 6 to 8 days after application, read-out: disease control
Procedure, shortened: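 Curative leaf-segment test, cv. Kanzler: spore inoculation, dark storage 19° C/75% RH, compound spray 1 day post-inoculation. Then 12 h light/12 h dark, 19° C, 75% RH. Read-out: % disease control vs untreated check, 6–8 d after application.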

[3] = test system: Glomerella lacenarium (Colletotrichum lacenarium); test: Fungicidal activity, liquid culture, cucumber preventative (anthracnose); type: cell-based; details: 20 ppm in the applied formulation, liquid culture in PDB, inhibition of growth measured photometrically 3 to 4 days after application, compared to untreated control, read-out: disease control
Procedure, shortened: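 PDB broth seeded with cryo-stored conidia, added onto compound (DMSO solution) in 96-well plates; 24° C.; photometric growth read at 3–4 d post-application; % inhibition vs untreated check.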

CCN(Cc1ccc(-c2noc(C(F)(F)F)n2)s1)C(=O)C(=O)c1ccco1 [Compound 6.46, N-ethyl-2-(2-furyl)-2-oxo-N-[[5-[5-(trifluoromethyl)-1,2,4-oxadiazol-3-yl]-2-thienyl]methyl]acetamide]
≥ 80%: pest or weed control at 200 ppm [1] | pest or weed control at 200 ppm [2] | inhibition of growth at 20 ppm [3]

CON(Cc1ccc(-c2noc(C(F)(F)F)n2)s1)C(=O)N(CC(F)F)C1CC1 [Compound 1.59, 1-cyclopropyl-1-(2,2-difluoroethyl)-3-methoxy-3-[[5-[5-(trifluoromethyl)-1,2,4-oxadiazol-3-yl]-2-thienyl]methyl]urea]
≥ 80%: pest or weed control at 200 ppm [1] | pest or weed control at 200 ppm [2] | inhibition of growth at 20 ppm [3]

CCN(Cc1ccc(-c2noc(C(F)(F)F)n2)s1)C(=O)C(=O)c1ccccc1 [Compound 6.40, N-ethyl-2-oxo-2-phenyl-N-[[5-[5-(trifluoromethyl)-1,2,4-oxadiazol-3-yl]-2-thienyl]methyl]acetamide]
≥ 80%: pest or weed control at 200 ppm [1] | pest or weed control at 200 ppm [2] | inhibition of growth at 20 ppm [3]

O=C(C1CC1)N(Cc1ccc(-c2noc(C(F)(F)F)n2)s1)OCC(F)F [Compound 5.7, N-(2,2-difluoroethoxy)-N-[[5-[5-(trifluoromethyl)-1,2,4-oxadiazol-3-yl]-2-thienyl]methyl]cyclopropanecarboxamide]
≥ 80%: pest or weed control at 200 ppm [1] | pest or weed control at 200 ppm [2] | inhibition of growth at 20 ppm [3]

CN(Cc1ccc(-c2noc(C(F)(F)F)n2)s1)C(=O)C(=O)c1ccccc1 [Compound 6.47, N-methyl-2-oxo-2-phenyl-N-[[5-[5-(trifluoromethyl)-1,2,4-oxadiazol-3-yl]-2-thienyl]methyl]acetamide]
≥ 80%: pest or weed control at 200 ppm [1] | pest or weed control at 200 ppm [2] | inhibition of growth at 20 ppm [3]

CC(C)N(Cc1ccc(-c2noc(C(F)(F)F)n2)s1)C(=O)C1(C)COC1 [Compound 5.32, N-isopropyl-3-methyl-N-[[5-[5-(trifluoromethyl)-1,2,4-oxadiazol-3-yl]-2-thienyl]methyl]oxetane-3-carboxamide]
≥ 80%: pest or weed control at 200 ppm [1] | pest or weed control at 200 ppm [2] | inhibition of growth at 20 ppm [3]

CCN(Cc1ccc(-c2noc(C(F)(F)F)n2)s1)C(=O)C(C)=O [Compound 6.6, N-ethyl-2-oxo-N-[[5-[5-(trifluoromethyl)-1,2,4-oxadiazol-3-yl]-2-thienyl]methyl]propanamide]
≥ 80%: pest or weed control at 200 ppm [1] | pest or weed control at 200 ppm [2] | inhibition of growth at 20 ppm [3]

CN(Cc1ccc(-c2noc(C(F)(F)F)n2)s1)C(=O)N(CC(F)F)C1CC1 [Compound 5.54, 1-cyclopropyl-1-(2,2-difluoroethyl)-3-methyl-3-[[5-[5-(trifluoromethyl)-1,2,4-oxadiazol-3-yl]-2-thienyl]methyl]urea]
≥ 80%: pest or weed control at 200 ppm [1] | pest or weed control at 200 ppm [2] | inhibition of growth at 20 ppm [3]

N#CCC(=O)N(Cc1ccc(-c2noc(C(F)(F)F)n2)s1)C1CC1 [Compound 4.59, 2-cyano-N-cyclopropyl-N-[[5-[5-(trifluoromethyl)-1,2,4-oxadiazol-3-yl]-2-thienyl]methyl]acetamide]
≥ 80%: pest or weed control at 200 ppm [1] | pest or weed control at 200 ppm [2] | inhibition of growth at 20 ppm [3]

CC1CC1C(=O)N(Cc1ccc(-c2noc(C(F)(F)F)n2)s1)OCC(F)F (stereo not drawn) [Compound 5.50, N-(2,2-difluoroethoxy)-2-methyl-N-[[5-[5-(trifluoromethyl)-1,2,4-oxadiazol-3-yl]-2-thienyl]methyl]cyclopropanecarboxamide]
≥ 80%: pest or weed control at 200 ppm [1] | pest or weed control at 200 ppm [2] | inhibition of growth at 20 ppm [3]

CC(C)N(Cc1ccc(-c2noc(C(F)(F)F)n2)s1)C(=O)C1CCOC1 (stereo not drawn) [Compound 5.28, N-isopropyl-N-[[5-[5-(trifluoromethyl)-1,2,4-oxadiazol-3-yl]-2-thienyl]methyl]tetrahydrofuran-3-carboxamide]
≥ 80%: pest or weed control at 200 ppm [1] | pest or weed control at 200 ppm [2] | inhibition of growth at 20 ppm [3]

O=C(Cc1ccccc1)C(=O)N(Cc1ccc(-c2noc(C(F)(F)F)n2)s1)C1CC1 [Compound 6.57, N-cyclopropyl-2-oxo-3-phenyl-N-[[5-[5-(trifluoromethyl)-1,2,4-oxadiazol-3-yl]-2-thienyl]methyl]propanamide]
≥ 80%: pest or weed control at 200 ppm [1] | pest or weed control at 200 ppm [2] | inhibition of growth at 20 ppm [3]

CNC(=O)N(OC)C(C)c1ccc(-c2noc(C(F)(F)F)n2)s1 (stereo not drawn) [Compound 1.50, 1-methoxy-3-methyl-1-[1-[5-[5-(trifluoromethyl)-1,2,4-oxadiazol-3-yl]-2-thienyl]ethyl]urea]
≥ 80%: pest or weed control at 200 ppm [1] | pest or weed control at 200 ppm [2] | inhibition of growth at 20 ppm [3]

CC(C)N(Cc1ccc(-c2noc(C(F)(F)F)n2)s1)C(=O)CC#N [Compound 4.49, 2-cyano-N-isopropyl-N-[[5-[5-(trifluoromethyl)-1,2,4-oxadiazol-3-yl]-2-thienyl]methyl]acetamide]
≥ 80%: pest or weed control at 200 ppm [1] | pest or weed control at 200 ppm [2] | inhibition of growth at 20 ppm [3]

CN(Cc1ccc(-c2noc(C(F)(F)F)n2)s1)C(=O)C(=O)C(C)(C)C [Compound 6.48, N,3,3-trimethyl-2-oxo-N-[[5-[5-(trifluoromethyl)-1,2,4-oxadiazol-3-yl]-2-thienyl]methyl]butanamide]
≥ 80%: pest or weed control at 200 ppm [1] | pest or weed control at 200 ppm [2] | inhibition of growth at 20 ppm [3]

CCN(Cc1ccc(-c2noc(C(F)(F)F)n2)s1)C(=O)C1CCOC1 (stereo not drawn) [Compound 5.10, N-ethyl-N-[[5-[5-(trifluoromethyl)-1,2,4-oxadiazol-3-yl]-2-thienyl]methyl]tetrahydrofuran-3-carboxamide]
≥ 80%: pest or weed control at 200 ppm [1] | pest or weed control at 200 ppm [2] | inhibition of growth at 20 ppm [3]

CC(=O)NCC(=O)N(Cc1ccc(-c2noc(C(F)(F)F)n2)s1)C(C)C [Compound 4.43, 2-acetamido-N-isopropyl-N-[[5-[5-(trifluoromethyl)-1,2,4-oxadiazol-3-yl]-2-thienyl]methyl]acetamide]
≥ 80%: pest or weed control at 200 ppm [1] | pest or weed control at 200 ppm [2] | inhibition of growth at 20 ppm [3]

COCC(=O)N(Cc1ccc(-c2noc(C(F)(F)F)n2)s1)C(C)C [Compound 4.42, N-isopropyl-2-methoxy-N-[[5-[5-(trifluoromethyl)-1,2,4-oxadiazol-3-yl]-2-thienyl]methyl]acetamide]
≥ 80%: pest or weed control at 200 ppm [1] | pest or weed control at 200 ppm [2] | inhibition of growth at 20 ppm [3]

CN(Cc1ccc(-c2noc(C(F)(F)F)n2)s1)C(=O)C(=O)c1cccs1 [Compound 6.52, N-methyl-2-oxo-2-(2-thienyl)-N-[[5-[5-(trifluoromethyl)-1,2,4-oxadiazol-3-yl]-2-thienyl]methyl]acetamide]
≥ 80%: pest or weed control at 200 ppm [1] | pest or weed control at 200 ppm [2] | inhibition of growth at 20 ppm [3]

O=C(N1CCCO1)N(Cc1ccc(-c2noc(C(F)(F)F)n2)s1)OCC(F)F [Compound 5.64, N-(2,2-difluoroethoxy)-N-[[5-[5-(trifluoromethyl)-1,2,4-oxadiazol-3-yl]-2-thienyl]methyl]isoxazolidine-2-carboxamide]
≥ 80%: pest or weed control at 200 ppm [1] | pest or weed control at 200 ppm [2] | inhibition of growth at 20 ppm [3]

COCCCC(=O)N(Cc1ccc(-c2noc(C(F)(F)F)n2)s1)OCC(F)F [Compound 4.67, N-(2,2-difluoroethoxy)-4-methoxy-N-[[5-[5-(trifluoromethyl)-1,2,4-oxadiazol-3-yl]-2-thienyl]methyl]butanamide]
≥ 80%: pest or weed control at 200 ppm [1] | pest or weed control at 200 ppm [2] | inhibition of growth at 20 ppm [3]

O=C(C1CC1(F)F)N(Cc1ccc(-c2noc(C(F)(F)F)n2)s1)C1CC1 (stereo not drawn) [Compound 5.42, N-cyclopropyl-2,2-difluoro-N-[[5-[5-(trifluoromethyl)-1,2,4-oxadiazol-3-yl]-2-thienyl]methyl]cyclopropanecarboxamide]
≥ 80%: pest or weed control at 200 ppm [1] | pest or weed control at 200 ppm [2] | inhibition of growth at 20 ppm [3]

CN(Cc1ccc(-c2noc(C(F)(F)F)n2)s1)S(C)(=O)=O [Compound 6.27, N-methyl-N-[[5-[5-(trifluoromethyl)-1,2,4-oxadiazol-3-yl]-2-thienyl]methyl]methanesulfonamide]
≥ 80%: pest or weed control at 200 ppm [1] | pest or weed control at 200 ppm [2] | inhibition of growth at 20 ppm [3]
